Data as given in ChEMBL document CHEMBL1201862, “PubChem BioAssay data set” (2004).
Active and inactive are the calls of the source.

Legend:
[1] = Luminescence Cell-Based Dose Retest to Confirm Inhibitors of Cancer Stem Cells. [Related pubchem assays (depositor defined):AID2717, AID2721]; assay type: functional; settings: Homo sapiens
[2] = viability loss of HMLE_sh_eGFP cells – cell-based, luminescence, counter-screen for HMLE_sh_ECad selective toxicity project, dose response (AID 463074); assay type: functional, Homo sapiens;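 also: HMLE human mammary epithelial cells expressing control shRNA against eGFP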
[3] = target: T1, Endoribonuclease toxin MazF (Escherichia coli K-12, UniProt P0AE70); test: activation of MazEF endoribonuclease cleavage – biochemical, fluorescence, single-stranded RNA substrate, uHTS hits, dose response (AID 588481); assay type: functional
T1 sequence (P0AE70 whole entry): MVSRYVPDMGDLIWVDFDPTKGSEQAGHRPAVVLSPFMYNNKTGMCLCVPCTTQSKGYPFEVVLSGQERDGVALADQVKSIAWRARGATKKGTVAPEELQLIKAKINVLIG

[4] = target: T1, Endoribonuclease toxin MazF; test: substrate-only fluorescence increase artefacts – biochemical, single-stranded RNase substrate, counter-screen for MazEF activator project, dose response (AID 588502); assay type: functional
[5] = Fluorescence-based cell-based high throughput dose response assay for inhibitors of the interaction of nucleotide-binding oligomerization domain containing 2 (NOD2) and the receptor-interacting serine-threonine kinase 2 (RIPK2).; assay type: functional; settings: Homo sapiens
HEK293 [6] = test: cells; settings: Homo sapiens
HEK293 [7] = test: cells; settings: Homo sapiens; remark: listed apart in the source
[8] = target: T2, Apoptotic protease-activating factor 1 (Homo sapiens, UniProt O14727); test: SAR analysis of small molecule Activators of Apaf-1 in a Fluorescent assay.; assay type: functional; settings: read-out: EC50_Mean
T2 sequence (O14727 whole entry): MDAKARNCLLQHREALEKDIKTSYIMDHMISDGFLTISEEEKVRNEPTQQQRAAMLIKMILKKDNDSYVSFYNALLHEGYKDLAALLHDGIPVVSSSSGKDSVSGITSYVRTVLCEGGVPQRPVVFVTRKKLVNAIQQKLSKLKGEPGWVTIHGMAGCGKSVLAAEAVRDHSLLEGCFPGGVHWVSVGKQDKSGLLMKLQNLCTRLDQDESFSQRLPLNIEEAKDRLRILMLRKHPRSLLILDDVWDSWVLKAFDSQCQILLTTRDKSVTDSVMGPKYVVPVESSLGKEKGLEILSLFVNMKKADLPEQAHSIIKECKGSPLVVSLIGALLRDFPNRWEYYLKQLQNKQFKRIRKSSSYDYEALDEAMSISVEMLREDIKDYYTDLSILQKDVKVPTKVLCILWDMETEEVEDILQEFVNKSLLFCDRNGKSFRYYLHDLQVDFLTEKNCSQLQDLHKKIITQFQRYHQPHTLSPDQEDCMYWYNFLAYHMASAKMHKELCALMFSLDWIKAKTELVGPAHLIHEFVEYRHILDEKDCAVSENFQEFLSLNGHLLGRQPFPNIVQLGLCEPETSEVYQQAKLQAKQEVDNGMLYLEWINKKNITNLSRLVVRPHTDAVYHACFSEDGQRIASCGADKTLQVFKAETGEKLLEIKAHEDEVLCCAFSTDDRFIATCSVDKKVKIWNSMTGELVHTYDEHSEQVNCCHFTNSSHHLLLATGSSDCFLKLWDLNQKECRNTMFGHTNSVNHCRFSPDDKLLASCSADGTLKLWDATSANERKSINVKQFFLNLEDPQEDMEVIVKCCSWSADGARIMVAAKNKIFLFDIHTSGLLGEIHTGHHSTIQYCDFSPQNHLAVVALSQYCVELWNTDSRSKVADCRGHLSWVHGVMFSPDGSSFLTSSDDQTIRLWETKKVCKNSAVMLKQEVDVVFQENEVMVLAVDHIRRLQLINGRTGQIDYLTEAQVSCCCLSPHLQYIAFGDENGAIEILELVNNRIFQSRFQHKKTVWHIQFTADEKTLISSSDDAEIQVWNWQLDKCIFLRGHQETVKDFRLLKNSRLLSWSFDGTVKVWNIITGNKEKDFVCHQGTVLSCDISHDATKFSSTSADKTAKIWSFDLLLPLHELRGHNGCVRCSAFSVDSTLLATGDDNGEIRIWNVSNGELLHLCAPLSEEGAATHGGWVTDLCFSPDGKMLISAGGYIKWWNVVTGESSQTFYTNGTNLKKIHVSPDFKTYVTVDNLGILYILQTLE

CHO = CHO cell viability loss, potency – luminescence, cytotoxicity control for TLR9-MyD88 binding inhibitor project, dose response (AID 588339); assay type: functional, cell-based, hamster; settings: Cricetulus griseus;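 also: CHO cells stably coexpressing TLR9 and MyD88 fusions from primary screen; compound exposure lasted 48 hours before viability readout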
Beta Lactamase = Beta Lactamase (Pseudomonas aeruginosa, UniProt Q932Y6); test: BLA reporter interference, concentration series – BLA reporter cells, FRET fluorescence, artefact control for TLR9-MyD88 binding inhibitor project, dose response (AID 588341); assay type: cell-based;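 also: cell based assay in CHO-K1 cells stably expressing beta-lactamase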
Vero = test: cells; assay type: functional; settings: Chlorocebus sabaeus
[9] = target: T3, Probable nicotinate-nucleotide adenylyltransferase (Staphylococcus aureus (strain N315), UniProt P65502); assay type: functional, Staphylococcus aureus subsp. aureus N315;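 as to IC50 Mean: confirmatory dose-response retesting of NadD inhibitor hits first found in an ultra-high-throughput screen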
[10] = target: T3, Probable nicotinate-nucleotide adenylyltransferase; assay type: functional, Staphylococcus aureus subsp. aureus N315; settings: read-out: IC50_Mean
[11] = target: T2, Apoptotic protease-activating factor 1; test: SAR analysis of small molecule inhibitors of Apaf-1 in a Fluorescent assay.; assay type: functional; settings: read-out: IC50_Mean
CAAX prenyl protease 2 = CAAX prenyl protease 2 (Homo sapiens, UniProt Q9Y256); test: inhibition of Ras-converting CAAX protease Rce1 – biochemical, yeast membranes, quenched-peptide fluorescence, cherry-pick, dose response (AID 588849)
[12] = target: Voltage-gated inwardly rectifying potassium channel KCNH2 (Homo sapiens, UniProt Q12809); settings: Potency;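 also: confirmatory quantitative high-throughput screen measuring inhibition of hERG channel activity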
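For EC50 Mean in this document: caspase-3 cleavage of fluorogenic Rh110 DEVD substrate downstream of apoptosome activation.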

T3 sequence (P65502 whole entry): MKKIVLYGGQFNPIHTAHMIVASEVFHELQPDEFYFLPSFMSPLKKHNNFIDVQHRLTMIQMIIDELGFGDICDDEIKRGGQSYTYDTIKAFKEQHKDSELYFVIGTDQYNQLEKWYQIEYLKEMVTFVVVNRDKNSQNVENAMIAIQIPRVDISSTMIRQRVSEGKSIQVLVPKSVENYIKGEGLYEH
CAAX prenyl protease 2, sequence (Q9Y256 whole entry): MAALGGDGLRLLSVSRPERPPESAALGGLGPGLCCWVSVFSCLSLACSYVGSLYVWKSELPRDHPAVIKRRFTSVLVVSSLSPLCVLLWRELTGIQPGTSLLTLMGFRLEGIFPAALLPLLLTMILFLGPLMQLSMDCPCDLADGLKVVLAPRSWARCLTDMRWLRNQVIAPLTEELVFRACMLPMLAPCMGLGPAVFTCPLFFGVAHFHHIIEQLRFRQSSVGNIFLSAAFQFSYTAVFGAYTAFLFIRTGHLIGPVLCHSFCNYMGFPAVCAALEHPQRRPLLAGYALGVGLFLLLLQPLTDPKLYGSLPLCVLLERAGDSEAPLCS
Voltage-gated inwardly rectifying potassium channel KCNH2, sequence (Q12809 whole entry): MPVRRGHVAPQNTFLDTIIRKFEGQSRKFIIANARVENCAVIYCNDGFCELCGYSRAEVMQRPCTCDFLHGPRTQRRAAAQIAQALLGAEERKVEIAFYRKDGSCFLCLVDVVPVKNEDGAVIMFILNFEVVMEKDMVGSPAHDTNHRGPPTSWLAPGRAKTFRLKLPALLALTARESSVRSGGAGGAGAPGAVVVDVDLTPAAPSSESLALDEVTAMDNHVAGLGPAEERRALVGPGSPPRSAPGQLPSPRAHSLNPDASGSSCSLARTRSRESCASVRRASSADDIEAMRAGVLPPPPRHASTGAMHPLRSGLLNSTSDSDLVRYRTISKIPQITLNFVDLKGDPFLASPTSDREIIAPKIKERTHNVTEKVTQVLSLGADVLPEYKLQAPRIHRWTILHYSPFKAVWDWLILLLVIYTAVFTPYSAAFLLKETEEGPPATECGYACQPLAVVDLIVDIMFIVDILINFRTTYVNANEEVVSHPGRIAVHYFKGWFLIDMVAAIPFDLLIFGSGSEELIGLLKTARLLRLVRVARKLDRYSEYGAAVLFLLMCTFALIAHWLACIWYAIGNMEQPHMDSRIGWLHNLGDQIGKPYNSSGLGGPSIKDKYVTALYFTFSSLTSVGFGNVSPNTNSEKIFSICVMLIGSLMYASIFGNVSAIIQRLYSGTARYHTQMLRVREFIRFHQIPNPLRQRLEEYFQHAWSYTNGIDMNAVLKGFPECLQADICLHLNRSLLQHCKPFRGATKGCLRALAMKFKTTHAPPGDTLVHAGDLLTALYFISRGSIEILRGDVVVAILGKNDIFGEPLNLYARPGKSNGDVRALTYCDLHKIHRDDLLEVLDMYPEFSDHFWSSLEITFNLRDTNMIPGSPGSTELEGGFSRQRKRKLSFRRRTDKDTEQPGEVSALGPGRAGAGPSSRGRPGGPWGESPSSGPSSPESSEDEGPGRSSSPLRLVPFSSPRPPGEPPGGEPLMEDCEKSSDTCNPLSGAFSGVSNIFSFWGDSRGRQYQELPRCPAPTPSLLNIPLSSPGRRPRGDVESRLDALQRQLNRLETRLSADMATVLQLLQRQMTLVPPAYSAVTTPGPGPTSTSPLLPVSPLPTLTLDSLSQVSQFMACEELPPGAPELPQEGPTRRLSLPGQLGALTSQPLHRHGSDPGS
Beta Lactamase, sequence (Q932Y6 whole entry): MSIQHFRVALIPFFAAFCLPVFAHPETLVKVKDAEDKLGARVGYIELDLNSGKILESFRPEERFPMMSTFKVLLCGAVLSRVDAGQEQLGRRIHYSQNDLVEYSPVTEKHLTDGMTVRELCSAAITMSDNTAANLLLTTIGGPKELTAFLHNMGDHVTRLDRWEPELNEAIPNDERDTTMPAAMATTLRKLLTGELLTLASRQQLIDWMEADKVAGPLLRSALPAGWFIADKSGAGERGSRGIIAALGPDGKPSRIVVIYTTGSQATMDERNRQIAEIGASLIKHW

COc1cccc(-c2sc3ccc(OC)cc3c2-c2ccc(OCCN3CCOCC3)cc2)c1
AC50 [1]: 2.09 µM (active)
AC50 [2]: 3.73 µM (inconclusive)

CN(N=Cc1ccc([N+](=O)[O-])cc1)c1ccccn1
EC50 [3]: 51.8 µM (inactive)
EC50 [4]: 37.8 µM (inactive)

O=[N+]([O-])c1ccc(Sc2ccncn2)c([N+](=O)[O-])c1
IC50 [5]: 7.56 µM (active)
EC50 (HEK293 [6]): > 59.6 µM (inactive)
EC50 (HEK293 [7]): > 59.6 µM (inactive)

O=C(O)[C@@H]1COC(c2ccc(F)cc2F)=N1
EC50 [8]: > 100 µM (inactive)

COc1cc(/C=C/c2ccc3c(Br)cc(Br)c(O)c3n2)ccc1O
IC50 (CHO): 7.79 µM (active)
IC50 (Beta Lactamase): 7.68 µM (active)
CC50 (Vero): 13.4 µM (active)
IC50 [9]: 10.1 µM (active)
IC50 [10]: 44.9 µM (active)

O=C1c2cc(Cl)ccc2-n2c1nc1ccccc1c2=O
IC50 [11]: 60.3 µM (active)

CCN(CC)c1ccc(/C=N/NC(=O)C(O)(c2ccccc2)c2ccccc2)o1
AC50 (CAAX prenyl protease 2): > 100 µM (inactive)

NC(Cc1ccc(N(CCCl)CCCl)cc1)C(=O)O (stereo unspecified) [SARCOLYSIN]
AC50 [12]: 35.5 µM (inconclusive)
